In patent US11872262B2, “Means and methods for treating bacterial infections” (VIB VZW, priority 2017, dated 2024):
Residues, ends and D or L forms follow the SMILES beside them.

Test system: E. coli O157:H7
Type: cell-based, Escherichia coli
Conditions: screening-stage peptides tested at 1, 6, 12 and 25 μg/mL
From the text: In the present invention we used the statistical thermodynamics algorithm TANGO to identify aggregation prone regions (APR) in the proteome of E. coli strain O157:H7. This yielded 3535 sequences of at least 6 amino acids in length and a TANGO score of at least 20%. In order to generate efficient aggregation seeds, we employed a previously devised tandem repeat design ^19, 21, in which the APRs are repeated once and separated by a linker. Given the length limitation on solid phase peptide synthesis with regard to yield and purity, we focused on the 1542 APRs with a length of 7 amino acids. In order to maximize the potential of these peptides to induce aggregation in E. coli, we ranked the APRs by their frequency of occurrence throughout the E. coli proteome, allowing a single amino acid mismatch, and selected the first 75 most frequently occurring sequences from this list (Table 4). In the design pattern, and in order to increase the colloidal stability of these aggregating peptides, the APRs are flanked by aggregation gatekeepers, a class of residues that was previously shown to reduce aggregation kinetics^22-24. […] To generate the tandem we used a single proline residue as a linker between the gatekeeper-flanked APRs. In addition to the 75 peptides generated in this fashion, we added 2 variants of each of the first 25 peptides in the list by randomly mutating one residue in the first APR repeat to arginine to further modulate the aggregation propensity of the peptides (Table 4). All the peptides were generated using solid phase synthesis at 200 nmole scale and dissolved in DMSO to a theoretical stock concentration of 2 mM (assuming 100% synthesis efficiency). Peptide activity on the growth of E. coli O157:H7 was measured at dilutions of the peptide corresponding to concentrations of 1, 6, 12 and 25 μg/mL. […] The Matthews Correlations Coefficient (MCC) with the measured activity was 0.1 at 12 μg/mL and 0.24 at 25 μg/mL.

`CC(C)C[C@H](NC(=O)[C@H](C)NC(=O)[C@H](CC(C)C)NC(=O)[C@@H](NC(=O)[C@H](CCC(N)=O)NC(=O)[C@H](C)NC(=O)[C@H](CCCNC(=N)N)NC(=O)[C@@H]1CCCN1C(=O)[C@H](CCCNC(=N)N)NC(=O)[C@H](CCCNC(=N)N)NC(=O)[C@H](CC(C)C)NC(=O)[C@H](CC(C)C)NC(=O)[C@H](C)NC(=O)[C@H](CC(C)C)NC(=O)[C@@H](NC(=O)[C@H](CCC(N)=O)NC(=O)[C@H](C)NC(=O)[C@@H](N)CCCNC(=N)N)C(C)C)C(C)C)C(=O)N[C@@H](CC(C)C)C(=O)N[C@@H](CCCNC(=N)N)C(=O)N[C@@H](CCCNC(=N)N)C(=O)O` [Peptide P40] (H-RAQVLALLRRPRAQVLALLRR-OH; N-terminus and C-terminus assumed) and `CC(C)C[C@H](NC(=O)[C@H](C)NC(=O)[C@H](CCCNC(=N)N)NC(=O)[C@@H]1CCCN1C(=O)[C@H](CCCNC(=N)N)NC(=O)[C@H](CCCNC(=N)N)NC(=O)[C@H](CC(C)C)NC(=O)[C@H](CC(C)C)NC(=O)[C@H](C)NC(=O)[C@@H](NC(=O)[C@H](CCCNC(=N)N)NC(=O)[C@H](CC(C)C)NC(=O)[C@H](C)NC(=O)[C@@H](N)CCCNC(=N)N)C(C)C)C(=O)N[C@@H](C)C(=O)N[C@H](C(=O)N[C@@H](C)C(=O)N[C@@H](CC(C)C)C(=O)N[C@@H](CC(C)C)C(=O)N[C@@H](CCCNC(=N)N)C(=O)N[C@@H](CCCNC(=N)N)C(=O)O)C(C)C` [Peptide P87] (H-RALRVALLRRPRALAVALLRR-OH; N-terminus and C-terminus assumed) are the same in “E. coli O157 (apparent MIC in screen)” value: 25 µg/mL for the first, 25 µg/mL for the second.

Going from `CC(C)C[C@H](NC(=O)[C@H](CC(N)=O)NC(=O)[C@H](CC(C)C)NC(=O)[C@H](CC(C)C)NC(=O)[C@@H](NC(=O)[C@H](CC(C)C)NC(=O)[C@H](CC(C)C)NC(=O)[C@H](CCCNC(=N)N)NC(=O)[C@@H]1CCCN1C(=O)[C@H](CCCNC(=N)N)NC(=O)[C@H](CCCNC(=N)N)NC(=O)[C@H](CC(C)C)NC(=O)[C@H](CC(N)=O)NC(=O)[C@H](CC(C)C)NC(=O)[C@H](CC(C)C)NC(=O)[C@@H](NC(=O)[C@H](CC(C)C)NC(=O)[C@H](CC(C)C)NC(=O)[C@@H](N)CCCNC(=N)N)[C@@H](C)O)[C@@H](C)O)C(=O)N[C@@H](CCCNC(=N)N)C(=O)N[C@@H](CCCNC(=N)N)C(=O)O` [Peptide P49] (H-RLLTLLNLRRPRLLTLLNLRR-OH; N-terminus and C-terminus assumed) to `CC(C)C[C@H](NC(=O)[C@H](CCC(N)=O)NC(=O)[C@H](CCCNC(=N)N)NC(=O)[C@@H]1CCCN1C(=O)[C@H](CCCNC(=N)N)NC(=O)[C@H](CCCNC(=N)N)NC(=O)[C@H](CC(C)C)NC(=O)[C@H](CC(C)C)NC(=O)[C@@H](NC(=O)[C@H](CC(C)C)NC(=O)[C@H](CC(C)C)NC(=O)[C@H](CC(C)C)NC(=O)[C@H](CCC(N)=O)NC(=O)[C@@H](N)CCCNC(=N)N)[C@@H](C)O)C(=O)N[C@@H](CC(C)C)C(=O)N[C@@H](CC(C)C)C(=O)N[C@H](C(=O)N[C@@H](CC(C)C)C(=O)N[C@@H](CC(C)C)C(=O)N[C@@H](CCCNC(=N)N)C(=O)N[C@@H](CCCNC(=N)N)C(=O)O)[C@@H](C)O` [Peptide P72] (H-RQLLLTLLRRPRQLLLTLLRR-OH; N-terminus and C-terminus assumed), the “E. coli O157 (apparent MIC in screen)” value rises from 12 µg/mL to 25 µg/mL (2.1-fold).

First: CC(C)C[C@H](NC(=O)CNC(=O)[C@@H](NC(=O)[C@H](CC(C)C)NC(=O)[C@H](CCCNC(=N)N)NC(=O)[C@@H]1CCCN1C(=O)[C@H](CCCNC(=N)N)NC(=O)[C@H](CCCNC(=N)N)NC(=O)CNC(=O)[C@H](CC(C)C)NC(=O)[C@@H](NC(=O)[C@H](CC(C)C)NC(=O)CNC(=O)[C@@H](NC(=O)[C@H](CC(C)C)NC(=O)[C@@H](N)CCCNC(=N)N)C(C)C)C(C)C)C(C)C)C(=O)N[C@H](C(=O)N[C@@H](CC(C)C)C(=O)NCC(=O)N[C@@H](CCCNC(=N)N)C(=O)N[C@@H](CCCNC(=N)N)C(=O)O)C(C)C [Peptide P50] (H-RLVGLVLGRRPRLVGLVLGRR-OH; N-terminus and C-terminus assumed)
Second: CC(C)C[C@H](NC(=O)[C@H](C)NC(=O)[C@H](CCCNC(=N)N)NC(=O)[C@@H]1CCCN1C(=O)[C@H](CCCNC(=N)N)NC(=O)[C@H](CCCNC(=N)N)NC(=O)[C@H](CC(C)C)NC(=O)[C@H](CC(C)C)NC(=O)[C@H](CC(C)C)NC(=O)[C@H](CO)NC(=O)[C@@H](NC(=O)[C@H](CC(C)C)NC(=O)[C@H](C)NC(=O)[C@@H](N)CCCNC(=N)N)C(C)C)C(=O)N[C@H](C(=O)N[C@@H](CO)C(=O)N[C@@H](CC(C)C)C(=O)N[C@@H](CC(C)C)C(=O)N[C@@H](CC(C)C)C(=O)N[C@@H](CCCNC(=N)N)C(=O)N[C@@H](CCCNC(=N)N)C(=O)O)C(C)C [Peptide P58] (H-RALVSLLLRRPRALVSLLLRR-OH; N-terminus and C-terminus assumed)
The “E. coli O157 (apparent MIC in screen)” value of the first is 2-fold lower: 6 µg/mL for the first, 12 µg/mL for the second.

`CC(C)C[C@H](NC(=O)[C@H](CC(C)C)NC(=O)[C@H](CC(C)C)NC(=O)[C@H](CCCNC(=N)N)NC(=O)[C@@H]1CCCN1C(=O)[C@H](CCCNC(=N)N)NC(=O)[C@H](CCCNC(=N)N)NC(=O)[C@@H](NC(=O)[C@H](CC(C)C)NC(=O)[C@H](CC(C)C)NC(=O)[C@H](CO)NC(=O)[C@H](CC(C)C)NC(=O)[C@H](CCCNC(=N)N)NC(=O)[C@H](CC(C)C)NC(=O)[C@@H](N)CCCNC(=N)N)C(C)C)C(=O)N[C@@H](CO)C(=O)N[C@@H](CC(C)C)C(=O)N[C@@H](CC(C)C)C(=O)N[C@H](C(=O)N[C@@H](CCCNC(=N)N)C(=O)N[C@@H](CCCNC(=N)N)C(=O)O)C(C)C` [Peptide P76] (H-RLRLSLLVRRPRLLLSLLVRR-OH; N-terminus and C-terminus assumed) and `CC(C)C[C@H](NC(=O)[C@H](C)NC(=O)[C@H](CC(C)C)NC(=O)[C@H](CCCNC(=N)N)NC(=O)[C@@H]1CCCN1C(=O)[C@H](CCCNC(=N)N)NC(=O)[C@H](CCCNC(=N)N)NC(=O)[C@H](CC(C)C)NC(=O)[C@H](CC(C)C)NC(=O)[C@H](CC(C)C)NC(=O)[C@H](CCCNC(=N)N)NC(=O)[C@H](CC(C)C)NC(=O)[C@H](C)NC(=O)[C@H](CC(C)C)NC(=O)[C@@H](N)CCCNC(=N)N)C(=O)N[C@@H](C)C(=O)N[C@@H](CC(C)C)C(=O)N[C@@H](CC(C)C)C(=O)N[C@@H](CC(C)C)C(=O)N[C@@H](CCCNC(=N)N)C(=O)N[C@@H](CCCNC(=N)N)C(=O)O` [Peptide P79] (H-RLALRLLLRRPRLALALLLRR-OH; N-terminus and C-terminus assumed) are the same in “E. coli O157 (apparent MIC in screen)” value: 12 µg/mL for the first, 12 µg/mL for the second.

With `CC(C)C[C@H](NC(=O)[C@H](C)NC(=O)[C@H](CCCNC(=N)N)NC(=O)[C@@H]1CCCN1C(=O)[C@H](CCCNC(=N)N)NC(=O)[C@H](CCCNC(=N)N)NC(=O)[C@H](CC(C)C)NC(=O)[C@H](CC(C)C)NC(=O)[C@@H](NC(=O)[C@@H](NC(=O)[C@H](CCCNC(=N)N)NC(=O)[C@H](CC(C)C)NC(=O)[C@H](C)NC(=O)[C@@H](N)CCCNC(=N)N)[C@@H](C)O)[C@@H](C)O)C(=O)N[C@@H](CC(C)C)C(=O)N[C@H](C(=O)N[C@H](C(=O)N[C@@H](CC(C)C)C(=O)N[C@@H](CC(C)C)C(=O)N[C@@H](CCCNC(=N)N)C(=O)N[C@@H](CCCNC(=N)N)C(=O)O)[C@@H](C)O)[C@@H](C)O` [Peptide P80] (H-RALRTTLLRRPRALLTTLLRR-OH; N-terminus and C-terminus assumed) the “E. coli O157 (apparent MIC in screen)” value was 25 µg/mL.
